This is an account of results in ChEMBL document CHEMBL1201862, “PubChem BioAssay data set” (2004).

For experiment [1], the target named is 26S proteasome non-ATPase regulatory subunit 14 (Homo sapiens, UniProt O00487). Description: inhibition of proteasome subunit RPN11 – biochemical, fluorescence polarization, uHTS hits, confirmation (AID 602368). It is filed as functional. Background: In fluorescence polarisation assays a small probe gives low polarisation when free and higher when bound to something large.
Chain of 26S proteasome non-ATPase regulatory subunit 14 (O00487 whole entry): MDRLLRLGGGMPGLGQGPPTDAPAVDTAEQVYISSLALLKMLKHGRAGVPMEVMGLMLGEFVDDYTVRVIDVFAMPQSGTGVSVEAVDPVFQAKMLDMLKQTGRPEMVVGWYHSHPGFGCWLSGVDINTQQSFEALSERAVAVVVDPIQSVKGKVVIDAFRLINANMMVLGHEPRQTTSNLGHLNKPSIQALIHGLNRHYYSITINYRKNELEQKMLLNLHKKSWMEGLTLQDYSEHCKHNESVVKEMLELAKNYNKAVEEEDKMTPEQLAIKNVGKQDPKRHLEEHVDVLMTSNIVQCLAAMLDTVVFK

The target in experiment [2] is 72 kDa type IV collagenase (Homo sapiens, UniProt P08253). The experiment in a line: Dose Response validation of uHTS RPN11 inhibitor hits using a MMP-2 Fluorescence assay. It is filed as functional.
Chain of 72 kDa type IV collagenase (P08253 whole entry): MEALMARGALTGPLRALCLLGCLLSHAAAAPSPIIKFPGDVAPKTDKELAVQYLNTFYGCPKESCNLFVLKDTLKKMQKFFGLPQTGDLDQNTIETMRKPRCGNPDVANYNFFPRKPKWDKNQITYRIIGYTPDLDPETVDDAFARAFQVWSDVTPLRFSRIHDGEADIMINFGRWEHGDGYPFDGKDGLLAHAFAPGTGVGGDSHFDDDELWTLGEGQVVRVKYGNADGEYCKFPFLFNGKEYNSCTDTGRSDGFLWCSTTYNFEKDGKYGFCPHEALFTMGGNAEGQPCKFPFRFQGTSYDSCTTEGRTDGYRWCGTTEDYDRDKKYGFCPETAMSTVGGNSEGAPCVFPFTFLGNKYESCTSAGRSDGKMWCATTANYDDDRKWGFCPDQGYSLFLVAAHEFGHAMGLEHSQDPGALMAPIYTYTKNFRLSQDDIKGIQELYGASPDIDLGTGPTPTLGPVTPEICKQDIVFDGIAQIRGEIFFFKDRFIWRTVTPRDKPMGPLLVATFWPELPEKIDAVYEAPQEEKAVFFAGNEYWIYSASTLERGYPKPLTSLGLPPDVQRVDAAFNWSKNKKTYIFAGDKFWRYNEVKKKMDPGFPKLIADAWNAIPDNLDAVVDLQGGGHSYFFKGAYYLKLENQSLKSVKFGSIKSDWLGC
In a further experiment the target is Prothrombin (Bos taurus, UniProt P00735). The experiment in a line: thrombin inhibition, dose response, biochemical, fluorescence polarization, uHTS hits (AID 602369). It is filed as functional.
Experiment [3] in a line: HEp-2 cell cytotoxicity, dose response, cytotoxicity control for RSV inhibitor project, HTS (AID 2410). It is filed as functional. The settings on record: human respiratory syncytial virus.
Another experiment concerns the target Protein Wnt-3a (Mus musculus, UniProt P27467). The experiment in a line: Wnt3a-driven reporter signaling inhibition, dose response, selectivity assay for Gli-SUFU antagonist project, Wnt-LIGHT cells, luminescence (AID 651570).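 Further: Wnt-LIGHT reporter cells stimulated with conditioned medium from Wnt3a-producing cells.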 It is filed as functional. To be noted: read-out: IC50_Mean.
A further experiment deals with Cytochrome P450 3A4 (Homo sapiens, UniProt P08684).
Chain of Cytochrome P450 3A4 (P08684 whole entry): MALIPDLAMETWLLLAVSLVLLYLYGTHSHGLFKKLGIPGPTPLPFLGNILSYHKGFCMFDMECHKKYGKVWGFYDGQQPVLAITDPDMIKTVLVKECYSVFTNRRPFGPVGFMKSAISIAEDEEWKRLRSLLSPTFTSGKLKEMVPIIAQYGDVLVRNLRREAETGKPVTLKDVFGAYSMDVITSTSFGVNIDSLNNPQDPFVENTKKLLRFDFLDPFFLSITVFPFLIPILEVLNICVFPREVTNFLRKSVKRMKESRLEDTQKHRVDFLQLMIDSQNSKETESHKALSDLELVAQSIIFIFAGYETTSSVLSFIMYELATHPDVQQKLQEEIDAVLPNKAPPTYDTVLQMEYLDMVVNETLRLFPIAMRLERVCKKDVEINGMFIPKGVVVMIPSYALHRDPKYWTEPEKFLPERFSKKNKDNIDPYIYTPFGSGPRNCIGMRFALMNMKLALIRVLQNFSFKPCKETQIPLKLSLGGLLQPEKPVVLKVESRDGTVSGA
Experiment [4] has as its target Luciferin 4-monooxygenase (Photinus pyralis, UniProt P08659). Description: firefly luciferase enzyme inhibitors, dose response, biochemical, luminescence (AID 1891).
Experiment [5] can be described thus: Luminescence Cell-Based Dose Confirmation HTS to Identify Inhibitors of Platelet Dense Granule Release. [Related pubchem assays: 1663 (Primary HTS), 1678 (Summary of Project)]. It is filed as functional.
The test system of the next experiment is INS1. The experiment in a line: beta cell apoptosis inhibitors, cytokine rescue, dose response, luminescence, retest (AID 449756).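 Further: cell death triggered by IL-1 beta plus TNF-alpha plus IFN-gamma mixture; protective hits raise ATP signal compared with cytokine alone wells.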 It is filed as functional, cell-based. The settings on record: Rattus norvegicus.
Experiment [6] in a line: Shn3 3'UTR reporter inhibitors, dose response, cell-based, Clone20 osteoblasts, firefly luciferase, cherry-picked (AID 624132).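 Further: firefly luciferase luminescence from reporter carrying the Shn3 3'UTR in osteoblasts.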 It is filed as functional.
The nature of experiment [7]: HepG2 cell cytotoxicity, dose response, cytotoxicity control for Shn3 inhibitor project, CellTiter-Glo, cherry-picked (AID 624134). It is filed as functional, cell-based. On the technique in general: Cellular ATP, detected with luciferase, serves as a proxy for viable cell number.
The nature of experiment [8]: control 3'UTR Renilla luciferase suppression, dose response, counter-screen for Shn3 inhibitor project, cell-based, Clone20-Shn3RL, cherry-picked (AID 624133). It is filed as functional. (In general: The purpose of a counterscreen is to sort out artefacts and off-target activity.)
In experiment [9] the test system is Streptococcus sp. 'group A'. Description: growth inhibition of control SK(-) GAS strain, dose response, counter-screen for streptokinase expression inhibitor project, luminescence, kanamycin, BacTiterGlo, confirmation (AID 1900). It is filed as functional, organism-based.
The test system of a further experiment is Streptococcus. The experiment in a line: Group A Streptococcus viability loss, dose response, counter-screen for streptokinase expression inhibitor project, luminescence, BacTiterGlo (AID 1915).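 Further: potency for reduction of bacterial viability or growth.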 It is filed as functional, organism-based.
Experiment [10] deals with T1, Heat shock factor protein 1 (Mus musculus, UniProt P38532).
T1 sequence (P38532 whole entry): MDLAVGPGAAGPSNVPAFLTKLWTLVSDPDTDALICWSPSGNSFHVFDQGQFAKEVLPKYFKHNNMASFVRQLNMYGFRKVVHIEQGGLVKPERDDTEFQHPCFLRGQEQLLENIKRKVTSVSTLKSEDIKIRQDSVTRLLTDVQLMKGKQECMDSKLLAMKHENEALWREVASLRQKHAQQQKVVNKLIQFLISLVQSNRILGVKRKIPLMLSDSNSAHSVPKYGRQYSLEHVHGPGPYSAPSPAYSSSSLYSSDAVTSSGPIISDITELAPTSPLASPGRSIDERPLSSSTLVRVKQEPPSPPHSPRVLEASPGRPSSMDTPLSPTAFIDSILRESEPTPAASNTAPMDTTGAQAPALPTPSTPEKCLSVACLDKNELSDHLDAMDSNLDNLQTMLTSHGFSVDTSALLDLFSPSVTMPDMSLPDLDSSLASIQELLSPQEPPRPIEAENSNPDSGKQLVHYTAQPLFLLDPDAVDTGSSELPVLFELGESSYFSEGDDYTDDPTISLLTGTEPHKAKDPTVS
The experiment in a line: HSF1 potentiators in luciferase reporter cells, confirmation, cell-based, NIH3T3, luminescence, dose retest (AID 435004).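 Further: stress induced by proteasome inhibitor MG132 added 30 min after compound; luciferase reporter driven by HSF1 response element in NIH3T3 cells; actives raise luminescence as potentiators of the MG132 stress response.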 It is filed as functional.

For experiment [11], the target named is T2, Replicative DNA helicase DnaB (Mycobacterium tuberculosis, UniProt P9WMR3).
T2 sequence (P9WMR3 whole entry): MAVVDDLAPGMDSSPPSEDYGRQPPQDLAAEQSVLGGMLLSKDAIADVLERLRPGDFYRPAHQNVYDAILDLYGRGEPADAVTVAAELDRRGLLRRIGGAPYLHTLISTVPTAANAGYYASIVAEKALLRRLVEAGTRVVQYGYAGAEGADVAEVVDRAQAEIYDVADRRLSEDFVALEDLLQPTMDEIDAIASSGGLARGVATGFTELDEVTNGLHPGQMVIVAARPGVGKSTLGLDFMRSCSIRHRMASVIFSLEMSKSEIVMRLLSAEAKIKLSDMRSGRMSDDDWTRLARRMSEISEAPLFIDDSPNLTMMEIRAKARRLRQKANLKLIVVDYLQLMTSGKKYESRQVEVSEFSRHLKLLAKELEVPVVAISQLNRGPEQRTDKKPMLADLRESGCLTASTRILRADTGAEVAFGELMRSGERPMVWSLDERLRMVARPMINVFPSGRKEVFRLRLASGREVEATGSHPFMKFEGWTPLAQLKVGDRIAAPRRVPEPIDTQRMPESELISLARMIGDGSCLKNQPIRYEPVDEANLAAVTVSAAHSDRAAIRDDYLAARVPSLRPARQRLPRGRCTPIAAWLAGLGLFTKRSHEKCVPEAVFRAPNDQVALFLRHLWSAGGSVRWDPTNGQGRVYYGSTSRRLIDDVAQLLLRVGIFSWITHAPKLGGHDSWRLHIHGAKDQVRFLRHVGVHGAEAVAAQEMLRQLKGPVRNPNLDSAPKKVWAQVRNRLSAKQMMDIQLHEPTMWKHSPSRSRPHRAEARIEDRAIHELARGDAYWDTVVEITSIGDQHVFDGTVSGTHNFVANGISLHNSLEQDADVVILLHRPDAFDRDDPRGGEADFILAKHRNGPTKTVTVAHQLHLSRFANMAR
The experiment in a line: DnaB intein splicing inhibitors, dose response, biochemical, cell-free fluorescence (AID 449749). It is filed as functional.

In experiment [12] the target is Heat shock protein HSP 90-alpha (Homo sapiens, UniProt P07900). It is filed as functional, organism-based.
A further experiment addresses T3, Protein RecA (Mycobacterium tuberculosis, UniProt P9WHJ3).
T3 sequence (P9WHJ3 whole entry): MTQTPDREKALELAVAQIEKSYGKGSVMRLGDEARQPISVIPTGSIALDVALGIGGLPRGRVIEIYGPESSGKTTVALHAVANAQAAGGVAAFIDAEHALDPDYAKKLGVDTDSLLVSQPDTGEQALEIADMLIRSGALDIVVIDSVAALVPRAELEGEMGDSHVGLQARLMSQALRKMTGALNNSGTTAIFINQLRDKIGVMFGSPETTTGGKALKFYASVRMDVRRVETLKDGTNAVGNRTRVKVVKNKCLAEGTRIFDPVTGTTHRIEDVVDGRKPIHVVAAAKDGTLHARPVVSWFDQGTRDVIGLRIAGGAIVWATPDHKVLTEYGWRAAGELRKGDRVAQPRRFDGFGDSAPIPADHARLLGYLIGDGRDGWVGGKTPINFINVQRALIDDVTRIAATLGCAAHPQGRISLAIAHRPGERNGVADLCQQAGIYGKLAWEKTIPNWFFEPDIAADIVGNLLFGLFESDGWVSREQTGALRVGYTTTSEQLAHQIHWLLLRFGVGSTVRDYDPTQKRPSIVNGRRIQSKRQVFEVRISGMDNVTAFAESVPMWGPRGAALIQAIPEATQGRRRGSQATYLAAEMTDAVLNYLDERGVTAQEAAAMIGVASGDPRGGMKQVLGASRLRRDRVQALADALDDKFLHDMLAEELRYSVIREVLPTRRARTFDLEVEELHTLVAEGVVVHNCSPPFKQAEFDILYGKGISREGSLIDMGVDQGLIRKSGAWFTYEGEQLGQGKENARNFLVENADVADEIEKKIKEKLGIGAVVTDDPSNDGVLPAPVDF
The experiment in a line: Fluorescence Cell-Free Homogeneous Dose Retest to Identify Inhibitors of RecA-Intein Splicing Activity. [Related pubchem assays (depositor defined):AID2097, AID2223, AID489010, AID492950]. It is filed as functional.

For experiment [13], the target named is T4, Mitochondrial peptide methionine sulfoxide reductase (Bos taurus, UniProt P54149).
T4 sequence (P54149 whole entry): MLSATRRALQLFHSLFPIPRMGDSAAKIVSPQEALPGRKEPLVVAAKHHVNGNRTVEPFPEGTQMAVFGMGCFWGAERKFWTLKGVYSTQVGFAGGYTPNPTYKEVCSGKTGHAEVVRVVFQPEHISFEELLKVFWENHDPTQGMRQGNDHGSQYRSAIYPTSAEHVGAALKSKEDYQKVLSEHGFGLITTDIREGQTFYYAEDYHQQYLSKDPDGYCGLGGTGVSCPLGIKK
Description: Absorbance-based biochemical high throughput dose response assay for activators of Methionine sulfoxide reductase A (MsrA). It is filed as functional.

Experiment [14] in a line: cytotoxicity in HEK-293T cells, dose response, cytotoxicity control for BCR NF-kB inhibitor project, luminescence, B-cell screen hits (AID 489021).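 Further: HEK-293T cells carrying an NF-kB luciferase reporter; cells exposed to compound for about 14 hours before viability readout.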 It is filed as functional, cell-based.
The test system of the next experiment is H9c2. The experiment in a line: cells. It is filed as functional, cell-based. To be noted: Rattus norvegicus, H9c2, Myocardium.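 Further: confirmatory concentration-response retest of ultra-high-throughput screening hits for modulation of myocardial damage; cell death induced by hydrogen peroxide oxidative stress; compound pretreatment for 60 min then peroxide exposure for 2 h; potency is for protecting the cells against peroxide damage rather than for killing them.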
Experiment [15] in a line: inhibitors of firefly luciferase expression or activity, dose response, H4 neuroglioma cells, luminescence (AID 1990). It is filed as functional, cell-based.
Experiment [16] can be described thus: Luminescence Cell-Based Dose Response HTS to Identify Inhibitors of 5'UTR Stem-Loop Driven Prion Protein mRNA Translation in H4 Neuroglioblastoma Cells. [Related pubchem assays: 1827 (Project Summary), 1813 (Primary HTS)]. It is filed as functional.
Experiment [17] in a line: inhibitors of SNCA 5'UTR-driven reporter translation, confirmation, H4 neuroglioma cells, luminescence (AID 1988). It is filed as functional, cell-based.
In experiment [18] the target is T5, Low molecular weight phosphotyrosine protein phosphatase (Homo sapiens, UniProt P24666).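 Further: Dose-response confirmation assay measuring inhibition of LMPTP enzyme activity by fluorescence intensity read-out.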
T5 sequence (P24666 whole entry): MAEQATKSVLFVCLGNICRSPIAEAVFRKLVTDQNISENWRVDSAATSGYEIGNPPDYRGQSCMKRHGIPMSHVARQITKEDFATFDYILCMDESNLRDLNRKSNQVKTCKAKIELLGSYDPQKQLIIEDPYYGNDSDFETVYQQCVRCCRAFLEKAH
It is filed as functional. The settings on record: read-out: IC50_Mean.

Activity calls are given as the source filed them. Where only a bound is given, the exact number is not on record here.

Chain of Protein Wnt-3a (P27467 whole entry): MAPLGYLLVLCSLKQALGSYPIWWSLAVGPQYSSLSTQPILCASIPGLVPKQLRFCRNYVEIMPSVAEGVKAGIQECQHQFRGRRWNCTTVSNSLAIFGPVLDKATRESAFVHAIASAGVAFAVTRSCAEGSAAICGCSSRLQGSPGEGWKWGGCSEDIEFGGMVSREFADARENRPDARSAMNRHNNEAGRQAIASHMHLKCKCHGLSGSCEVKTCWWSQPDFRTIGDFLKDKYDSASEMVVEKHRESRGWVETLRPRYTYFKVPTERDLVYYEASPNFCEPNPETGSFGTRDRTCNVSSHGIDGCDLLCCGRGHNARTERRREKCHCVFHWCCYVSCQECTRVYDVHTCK
Chain of Luciferin 4-monooxygenase (P08659 whole entry): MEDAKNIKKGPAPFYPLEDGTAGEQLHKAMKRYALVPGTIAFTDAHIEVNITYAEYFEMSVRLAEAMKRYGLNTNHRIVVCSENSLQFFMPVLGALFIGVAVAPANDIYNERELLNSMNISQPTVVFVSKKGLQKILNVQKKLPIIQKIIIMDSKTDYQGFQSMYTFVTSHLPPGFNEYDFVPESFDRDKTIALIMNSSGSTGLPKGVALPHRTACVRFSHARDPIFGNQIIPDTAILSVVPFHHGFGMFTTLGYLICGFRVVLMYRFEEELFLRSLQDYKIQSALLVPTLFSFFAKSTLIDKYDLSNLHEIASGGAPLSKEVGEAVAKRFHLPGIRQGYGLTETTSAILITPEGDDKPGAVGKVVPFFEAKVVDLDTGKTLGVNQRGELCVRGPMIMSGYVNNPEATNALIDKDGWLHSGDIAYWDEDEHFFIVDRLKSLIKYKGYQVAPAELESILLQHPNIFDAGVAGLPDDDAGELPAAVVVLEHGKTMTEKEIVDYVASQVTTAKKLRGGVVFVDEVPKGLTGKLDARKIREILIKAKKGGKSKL

For `Cn1c(=O)c2cc(S(=O)(=O)NC(C(=O)Nc3cccc(F)c3)c3ccccc3)ccc2n(C)c1=O` (stereo not drawn), the values for the IC50 (in experiment [1]; in experiment [2]; at Prothrombin) were 92.8 µM (active), > 100 µM (inactive) and > 100 µM (inactive), respectively.

As a reminder, the CC50 is the concentration that lowers cell viability or growth by half. By AC50 is commonly meant the midpoint of the concentration-response curve, whichever way the signal moves. Take `COc1ccc(-c2nn(-c3ccccc3)cc2/C=N/NC(=O)c2ccc(Br)o2)cc1`: the CC50 in experiment [3] is 18.8 µM (active). Moreover, the IC50 at Protein Wnt-3a was 7.01 µM (active). Besides, on Cytochrome P450 3A4, the AC50 was 15.8 µM (inconclusive).

By EC50 is commonly meant the concentration giving half of the maximal effect. As for `Cc1cccnc1CN1CCN(C(=O)c2cc(COc3ccc4ncccc4c3)on2)CC1`, the EC50 in [4] and in experiment [5] was > 112 µM (not active) in each case. Moreover, the concentration at half-maximal activity (AC50) was 3.77 µM (active) in the experiment with INS1, 2.1 µM (active) in experiment [6], 7.57 µM (active) in experiment [7] and 2.78 µM (active) in [8]. The IC50 on Protein Wnt-3a was 1.62 µM (active).

For `CN1CCN(C(c2ccc(Cl)cc2)c2cc(Cl)c3cccnc3c2O)CC1` (stereo not drawn), the EC50 in [9] is 1.92 µM (active); with Streptococcus, 3.8 µM (active); in experiment [10], > 260 µM (inconclusive); at Protein RecA, 2.42 µM (active). Also, the AC50 in experiment [11] was > 380 µM (inactive); in [12] it was 0.77 µM (active). Also, the IC50 is 56.4 µM (active) in experiment [1], 14.8 µM (active) in [2] and 75.6 µM (active) on Prothrombin.

As for `N#Cc1ccccc1NC(=O)CN1C(=O)NC(Cc2c[nH]c3ccccc23)C1=O` (stereo not drawn), the EC50 in [13] is > 104 µM (inactive).

With `COc1cc(NC(=O)c2cc3c(C)nc4ccccc4c3o2)cc(OC)c1OC`, the IC50 in experiment [14] was 62.8 µM (inactive); in the experiment on H9c2, > 79 µM (inactive).

Take `CC12C=CC(=O)CC1CCC1C2CCC2(C)C(O)C(O)CC12` (stereo not drawn): in the experiment on H9c2, the IC50 is > 79 µM (inactive).

For `COc1ccc(-n2nc3c(N4CCC(C(=O)NCc5ccco5)CC4)nnc(C)c3c2C)cc1`, the EC50 in experiment [15] was > 120 µM (not active); in experiment [16], 20.3 µM (active); in experiment [17], > 120 µM (not active). Moreover, in [18], the IC50 was 61.1 µM (inactive).

For the molecule `COc1nnc(-c2ccc(N3CCCCC3)c(N)c2)c2ccccc12`, at Protein Wnt-3a, the IC50 is 25.8 µM (inactive).

As for `COc1ccc(/C=N/NC(=O)c2ccc(COc3cccc4cccnc34)cc2)cc1OC`, in the experiment on H9c2, the IC50 was > 79 µM (inactive).

With `Cc1ccc2c(c1)nc1c3ccccc3nc(-c3ccccc3N)n21`, the IC50 with H9c2 was > 79 µM (inactive).
